{
  "source": "patent US11279701B2",
  "about": "“Immunomodulators and immunomodulator conjugates” (REGENTS OF THE UNIVERSITY OF MINNESOTA, priority 2016, dated 2022)",
  "key": {"human TLR-7": {"target": "T1, human TLR-7 (Homo sapiens, UniProt Q9NYK1)", "T1 construct": "host or cells: HEK cells stably transfected with human TLR-7 and an NF-κB-responsive SEAP reporter (HEK-TLR-7)", "T1 sequence (Q9NYK1 27-1049)": "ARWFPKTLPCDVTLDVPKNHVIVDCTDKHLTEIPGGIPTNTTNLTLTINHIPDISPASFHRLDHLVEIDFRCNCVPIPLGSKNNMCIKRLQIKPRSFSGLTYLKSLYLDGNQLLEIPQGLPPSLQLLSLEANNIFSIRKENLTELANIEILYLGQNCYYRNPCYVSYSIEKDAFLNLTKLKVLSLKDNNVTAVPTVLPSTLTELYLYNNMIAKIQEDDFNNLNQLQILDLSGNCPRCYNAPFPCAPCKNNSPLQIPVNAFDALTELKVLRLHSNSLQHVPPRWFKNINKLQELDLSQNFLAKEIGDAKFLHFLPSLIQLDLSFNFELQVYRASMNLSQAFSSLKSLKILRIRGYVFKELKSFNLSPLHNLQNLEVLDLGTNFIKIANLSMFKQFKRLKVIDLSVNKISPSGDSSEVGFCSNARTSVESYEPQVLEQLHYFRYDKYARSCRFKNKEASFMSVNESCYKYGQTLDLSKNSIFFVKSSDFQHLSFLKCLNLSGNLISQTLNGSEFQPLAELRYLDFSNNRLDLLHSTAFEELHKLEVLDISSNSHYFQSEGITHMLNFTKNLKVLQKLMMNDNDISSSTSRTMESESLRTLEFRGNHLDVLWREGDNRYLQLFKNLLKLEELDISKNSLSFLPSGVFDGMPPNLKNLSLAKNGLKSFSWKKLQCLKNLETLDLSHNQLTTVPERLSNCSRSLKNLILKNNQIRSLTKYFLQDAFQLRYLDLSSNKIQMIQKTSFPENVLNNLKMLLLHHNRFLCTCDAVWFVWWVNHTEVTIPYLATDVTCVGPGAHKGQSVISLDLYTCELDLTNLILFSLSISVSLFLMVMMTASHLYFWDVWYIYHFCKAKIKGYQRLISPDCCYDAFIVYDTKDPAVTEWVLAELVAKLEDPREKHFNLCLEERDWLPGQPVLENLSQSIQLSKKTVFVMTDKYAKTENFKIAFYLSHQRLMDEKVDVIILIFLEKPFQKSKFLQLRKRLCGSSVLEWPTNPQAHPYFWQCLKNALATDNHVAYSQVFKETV", "assay": "TLR7/8-NF-κB Reporter Assay (HEK SEAP Reporter Assay), HEK-TLR-7 cells", "type": "cell-based", "details": "HEK cells stably transfected with human TLR-7 and NF-κB-responsive SEAP gene, 24 h"}, "human TLR-8": {"target": "T2, human TLR-8 (Homo sapiens, UniProt Q9NR97)", "T2 construct": "host or cells: HEK cells stably transfected with human TLR-8 and an NF-κB-responsive SEAP reporter (HEK-TLR-8)", "T2 sequence (Q9NR97 27-1041)": "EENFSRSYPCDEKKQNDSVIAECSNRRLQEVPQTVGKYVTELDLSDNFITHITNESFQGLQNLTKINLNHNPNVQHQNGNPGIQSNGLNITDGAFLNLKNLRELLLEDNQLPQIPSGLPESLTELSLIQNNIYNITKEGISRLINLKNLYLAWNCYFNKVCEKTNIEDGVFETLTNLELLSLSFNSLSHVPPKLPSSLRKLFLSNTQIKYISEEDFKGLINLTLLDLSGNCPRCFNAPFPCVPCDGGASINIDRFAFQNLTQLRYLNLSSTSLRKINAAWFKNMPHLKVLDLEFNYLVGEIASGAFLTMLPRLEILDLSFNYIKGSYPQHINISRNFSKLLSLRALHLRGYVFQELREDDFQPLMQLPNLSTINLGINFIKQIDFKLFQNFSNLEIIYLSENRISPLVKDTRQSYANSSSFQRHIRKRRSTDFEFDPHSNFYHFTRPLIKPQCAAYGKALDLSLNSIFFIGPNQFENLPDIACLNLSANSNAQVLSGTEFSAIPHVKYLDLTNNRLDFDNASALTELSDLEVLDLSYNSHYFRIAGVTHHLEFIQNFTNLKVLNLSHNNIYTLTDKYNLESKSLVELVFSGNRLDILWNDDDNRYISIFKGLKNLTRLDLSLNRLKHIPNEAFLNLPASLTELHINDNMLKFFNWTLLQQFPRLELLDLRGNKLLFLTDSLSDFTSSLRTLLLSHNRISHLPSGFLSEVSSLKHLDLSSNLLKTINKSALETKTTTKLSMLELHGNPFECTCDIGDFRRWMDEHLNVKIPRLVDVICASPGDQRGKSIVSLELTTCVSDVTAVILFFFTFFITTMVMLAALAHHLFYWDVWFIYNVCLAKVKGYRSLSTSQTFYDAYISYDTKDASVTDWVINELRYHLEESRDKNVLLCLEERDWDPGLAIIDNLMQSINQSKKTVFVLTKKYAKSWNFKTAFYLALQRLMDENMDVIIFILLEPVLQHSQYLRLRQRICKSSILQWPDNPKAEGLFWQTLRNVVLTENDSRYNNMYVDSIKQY", "assay": "TLR7/8-NF-κB Reporter Assay (HEK SEAP Reporter Assay), HEK-TLR-8 cells", "type": "cell-based", "details": "HEK cells stably transfected with human TLR-8 and NF-κB-responsive SEAP gene, 24 h"}},
  "data": [
    {"compound": "CCCCc1nc2c(N)nc3cc(C(=O)OC)ccc3c2n1CCC(=O)OC", "note": "[Compound 567]", "values": [
      {"measurement": "EC50", "setting": "human TLR-7", "value": 3600, "unit": "nM"}
    ]},
    {"compound": "CCCCc1nc2c(N)nc3cc(C(=O)OC)ccc3c2n1CCCCCC(=O)OC", "note": "[Compound 570]", "values": [
      {"measurement": "EC50", "setting": "human TLR-7", "value": 2900, "unit": "nM"}
    ]},
    {"compound": "CCCCc1nc2c(N)nc3cc(C(=O)OC)ccc3c2n1CCCN", "note": "[Compound 572]", "values": [
      {"measurement": "EC50", "setting": "human TLR-8", "value": 66000, "unit": "nM"}
    ]},
    {"compound": "CCCCc1nc2c(N)nc3cc(C(=O)OC)ccc3c2n1CC(=O)OC", "note": "[Compound 566]", "values": [
      {"measurement": "EC50", "setting": "human TLR-7", "value": 3300, "unit": "nM"}
    ]},
    {"compound": "CCCCc1nc2c(N)nc3cc(C(=O)OC)ccc3c2n1CCCCC(=O)OC", "note": "[Compound 569]", "values": [
      {"measurement": "EC50", "setting": "human TLR-7", "value": 1740, "unit": "nM"}
    ]},
    {"compound": "CCCCc1nc2c(N)nc3cc(C(=O)OC)ccc3c2n1CCCCCN", "note": "[Compound 574]", "values": [
      {"measurement": "EC50", "setting": "human TLR-7", "value": 600, "unit": "nM"},
      {"measurement": "EC50", "setting": "human TLR-8", "value": 2200, "unit": "nM"}
    ]},
    {"compound": "CCCCc1nc2c(N)nc3cc(C(=O)OC)ccc3c2n1CCSCC", "note": "[Compound 565]", "values": [
      {"measurement": "EC50", "setting": "human TLR-7", "value": 6700, "unit": "nM"}
    ]},
    {"compound": "CCCCc1nc2c(N)nc3cc(C(=O)OC)ccc3c2n1Cc1ccc(C(=O)O)cc1", "note": "[Compound 556]", "values": [
      {"measurement": "EC50", "setting": "human TLR-7", "value": 189000, "unit": "nM"}
    ]},
    {"compound": "CCCCc1nc2c(N)nc3cc(C(=O)OC)ccc3c2n1CCCSC", "note": "[Compound 564]", "values": [
      {"measurement": "EC50", "setting": "human TLR-7", "value": 3800, "unit": "nM"}
    ]},
    {"compound": "CCCCc1nc2c(N)nc3cc(C(=O)OC)ccc3c2n1CCCCN", "note": "[Compound 573]", "values": [
      {"measurement": "EC50", "setting": "human TLR-8", "value": 3850, "unit": "nM"}
    ]},
    {"compound": "CCCCc1nc2c(N)nc3cc(C(=O)OC)ccc3c2n1CCCC(=O)OC", "note": "[Compound 568]", "values": [
      {"measurement": "EC50", "setting": "human TLR-7", "value": 4500, "unit": "nM"}
    ]},
    {"compound": "4-amino-2-butyl-1-(2-hydroxypropyl)-7-benzenesulphonyl-1H-imidazo[4,5-c]quinoline [Compound 548]", "values": [
      {"measurement": "EC50", "setting": "human TLR-7", "value": 1530, "unit": "nM"},
      {"measurement": "EC50", "setting": "human TLR-8", "value": 290, "unit": "nM"}
    ]},
    {"compound": "CCCCc1nc2c(N)nc3cc(C(=O)OC)ccc3c2n1CCCNS(=O)(=O)c1ccccc1", "note": "[Compound 544]", "values": [
      {"measurement": "EC50", "setting": "human TLR-7", "value": 420, "unit": "nM"},
      {"measurement": "EC50", "setting": "human TLR-8", "value": 240, "unit": "nM"}
    ]},
    {"compound": "CCCCc1nc2c(N)nc3cc(C(=O)OC)ccc3c2n1CCSC", "note": "[Compound 563]", "values": [
      {"measurement": "EC50", "setting": "human TLR-7", "value": 2900, "unit": "nM"}
    ]}
  ]
}
